Assay [1] has as its system TGF-β-stimulated SMAD3 phosphorylation in BEAS-2B cells. Nature of the assay: Cellular ALK5 potency assay, inhibition of TGF-β stimulated pSMAD3 formation in BEAS-2B cells. Type of assay: cell-based. The settings on record: Homo sapiens; inhibition of TGF-β stimulated pSMAD3 formation, BEAS-2B cells; read-out: BEAS2B pIC50 (converted). In short, it runs like this:
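Cells seeded overnight; rinse with supplemented HBSS; compound 1 h at 37 °C; TGF-β 10 ng/mL final, 30 min; lyse; AlphaLISA acceptor and detector beads 2 h apart, read next day. Potency expressed as pIC50.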

The target in assay [2] is T1, recombinant human ALK5 (TGF-βR1) protein (Homo sapiens, UniProt P36897).
T1 construct: purchased Life Technologies PR9075A
T1 sequence (P36897 34-503): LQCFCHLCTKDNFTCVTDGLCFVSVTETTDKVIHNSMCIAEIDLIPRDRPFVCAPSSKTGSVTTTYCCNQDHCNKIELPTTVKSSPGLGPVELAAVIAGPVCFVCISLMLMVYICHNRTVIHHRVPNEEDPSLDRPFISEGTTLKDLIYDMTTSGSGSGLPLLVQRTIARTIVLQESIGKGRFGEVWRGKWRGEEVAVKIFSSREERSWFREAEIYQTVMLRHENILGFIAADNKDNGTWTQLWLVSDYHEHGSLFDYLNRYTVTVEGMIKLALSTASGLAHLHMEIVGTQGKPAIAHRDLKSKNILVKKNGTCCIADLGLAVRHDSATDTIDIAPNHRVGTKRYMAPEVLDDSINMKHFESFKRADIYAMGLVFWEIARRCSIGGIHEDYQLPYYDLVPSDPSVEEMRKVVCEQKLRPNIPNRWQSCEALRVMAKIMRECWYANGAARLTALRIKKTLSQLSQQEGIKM
Description: Biochemical ALK5 (TGF-βR1) assay to measure pKi (LANCE Ultra ULight kinase assay). To be noted: apparent pKi from pIC50 by Cheng-Prusoff, read-out: ALK5 pKi (converted). In short, it runs like this:
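Dose range 10 μM–25 pM; enzyme + compound 60 min RT; ATP added (5× stock 125 μM, 2 mM DTT); 60 min 37 °C; stop with EDTA + Eu anti-phospho-Topo IIα Thr1342 Ab; TR-FRET ex 320/340, em 665 nm. 4-param pIC50 → pKi (Cheng-Prusoff).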
A general note: Time-resolved FRET reads energy transfer from a long-lived donor to a nearby acceptor.

A value given as a limit tells only on which side of the number the result lay.

Take `Cc1cccc(-c2n[nH]cc2-c2ccc3nccc(-c4cn[nH]c4)c3n2)n1` [Compound 834, 2-[3-(6-methyl-2-pyridyl)-1H-pyrazol-4-yl]-8-(1H-pyrazol-4-yl)-1,5-naphthyridine]: the IC50 in assay [1] is less than 20 nM. For the same molecule, the Ki in assay [2] was 0.0398 to 0.316 nM.

As to `Cc1cccc(-c2[nH]cnc2-c2ccc3ncc(N4CC5(CCCNC5)C4)cc3c2)n1` [Compound 159, 3-(2,8-diazaspiro[3.5]nonan-2-yl)-6-[5-(6-methyl-2-pyridyl)-1H-imidazol-4-yl]quinoline], in assay [1], the IC50 is less than 20 nM. Besides, the Ki in assay [2] was less than 0.0316 nM.

With `CNCc1c(-c2cn[nH]c2)cnc2ccc(-c3c[nH]nc3-c3cccc(C)n3)cc12` [Compound 471, N-methyl-1-[6-[3-(6-methyl-2-pyridyl)-1H-pyrazol-4-yl]-3-(1H-pyrazol-4-yl)-4-quinolyl]methanamine], in assay [1], the IC50 was 25.1 to 158 nM. The Ki in assay [2] was 0.0398 to 0.316 nM.

`Cc1cccc(-c2[nH]cnc2-c2ccc3ncc(-c4csc(C(=O)OC5CCNCC5)c4)cc3c2)n1` [Compound 751, 4-piperidyl 4-[6-[5-(6-methyl-2-pyridyl)-1H-imidazol-4-yl]-3-quinolyl]thiophene-2-carboxylate]: the IC50 in assay [1] is 25.1 to 158 nM. Moreover, the Ki in assay [2] is less than 0.0316 nM.

In the case of `Cc1cccc(-c2[nH]cnc2-c2ccc3nccc(C(=O)O[C@H]4CC[C@@](C)(N)CC4)c3c2)n1` [Compound 1161, (4-amino-4-methyl-cyclohexyl) 6-[5-(6-methyl-2-pyridyl)-1H-imidazol-4-yl]quinoline-4-carboxylate], the IC50 in assay [1] is 200 to 1260 nM. Also, the Ki in assay [2] is 3.98 to 31.6 nM.

Consider `Cc1cccc(-c2[nH]cnc2-c2ccc3ncc(-c4ccc(C(=O)OC[C@H]5CCCCN5)cn4)cc3c2)n1` [Compound 1244, [(2R)-2-piperidyl]methyl 6-[6-[5-(6-methyl-2-pyridyl)-1H-imidazol-4-yl]-3-quinolyl]pyridine-3-carboxylate], for which, in assay [1], the IC50 was 25.1 to 158 nM. Also, in assay [2], the Ki was 0.0398 to 0.316 nM.

As to `CCOC(=O)C1CC=C(c2cnc3ccc(-c4nc[nH]c4-c4cccc(C)n4)cc3c2)CC1` (stereo not shown) [Compound 167, ethyl 4-[6-[5-(6-methyl-2-pyridyl)-1H-imidazol-4-yl]-3-quinolyl]cyclohex-3-ene-1-carboxylate], the IC50 in assay [1] was 25.1 to 158 nM. Besides, the Ki in assay [2] was 0.0398 to 0.316 nM.

As to `Cc1cccc(-c2[nH]cnc2-c2ccc3ncc(C(=O)OCCN4C[C@@H](C)N[C@@H](C)C4)cc3c2)n1` [Compound 886, 2-((3S,5R)-3,5-dimethylpiperazin-1-yl)ethyl 6-(5-(6-methylpyridin-2-yl)-1H-imidazol-4-yl)quinoline-3-carboxylate], in assay [1], the IC50 was 25.1 to 158 nM. Moreover, the Ki in assay [2] was 0.0398 to 0.316 nM.

Turning to `Cc1cccc(-c2[nH]cnc2-c2ccc3ncc(C(=O)OC[C@H]4CC[C@@H](N)CC4)cc3c2)n1` [Compound 770, (4-aminocyclohexyl)methyl 6-[5-(6-methyl-2-pyridyl)-1H-imidazol-4-yl]quinoline-3-carboxylate], the IC50 in assay [1] was 25.1 to 158 nM. Besides, the Ki in assay [2] was 0.0398 to 0.316 nM.

For `Cc1cccc(-c2n[nH]cc2-c2ccc3ncc(C4=CCC(NC(C)C)CC4)cc3n2)n1` (stereo not shown) [Compound 417, N-isopropyl-4-[6-[3-(6-methyl-2-pyridyl)-1H-pyrazol-4-yl]-1,5-naphthyridin-3-yl]cyclohex-3-en-1-amine], in assay [1], the IC50 was 25.1 to 158 nM. In assay [2], the Ki was less than 0.0316 nM.

Consider `Cc1cccc(-c2nc3ccccn3c2-c2ccc3ncc(NCCN4CCN(C(C)C)CC4)cc3n2)n1` [Compound 120, N-(2-(4-isopropylpiperazin-1-yl)ethyl)-6-(2-(6-methylpyridin-2-yl)imidazo[1,2-a]pyridin-3-yl)-1,5-naphthyridin-3-amine], for which the IC50 in assay [1] was 25.1 to 158 nM. Also, in assay [2], the Ki is 0.0398 to 0.316 nM.

For the molecule `Cc1cccc(-c2n[nH]cc2-c2ccc3ncc(NCCN4CCCC4(C)C)cc3n2)n1` [Compound 31, N-[2-(2,2-dimethylpyrrolidin-1-yl)ethyl]-6-[3-(6-methyl-2-pyridyl)-1H-pyrazol-4-yl]-1,5-naphthyridin-3-amine], the IC50 in assay [1] is 25.1 to 158 nM. The Ki in assay [2] was less than 0.0316 nM.

As to `Cc1cccc(-c2n[nH]cc2-c2ccc3nccc(N4CCC(N5CCOCC5)CC4)c3n2)n1` [Compound 847, 4-[1-[6-[3-(6-methyl-2-pyridyl)-1H-pyrazol-4-yl]-1,5-naphthyridin-4-yl]-4-piperidyl]morpholine], the IC50 in assay [1] was 25.1 to 158 nM. In addition, the Ki in assay [2] was 0.0398 to 0.316 nM.

As to `Cc1cccc(-c2[nH]cnc2-c2ccc3ncc(C(=O)OC[C@@H]4CCCCN4)cc3c2)n1` [Compound 883, (S)-piperidin-2-ylmethyl 6-(5-(6-methylpyridin-2-yl)-1H-imidazol-4-yl)quinoline-3-carboxylate], the IC50 in assay [1] was 25.1 to 158 nM. The Ki in assay [2] was 0.398 to 3.16 nM.

As to `Cc1cccc(-c2[nH]cnc2-c2ccc3ncc(-c4cc(C(=O)OCCN5CCNCC5)cs4)cc3c2)n1` [Compound 1141, 2-piperazin-1-ylethyl 5-[6-[5-(6-methyl-2-pyridyl)-1H-imidazol-4-yl]-3-quinolyl]thiophene-3-carboxylate], in assay [1], the IC50 was 25.1 to 158 nM. Moreover, the Ki in assay [2] was 0.0398 to 0.316 nM.

Regarding `Cc1cccc(-c2n[nH]cc2-c2ccc3ncc(-c4ccc(C5CCCN(Cc6ccccc6)C5)cc4)cc3n2)n1` (stereo not shown) [Compound 251, 7-[4-(1-benzyl-3-piperidyl)phenyl]-2-[3-(6-methyl-2-pyridyl)-1H-pyrazol-4-yl]-1,5-naphthyridine], in assay [1], the IC50 was 200 to 1260 nM. In addition, in assay [2], the Ki is 0.0398 to 0.316 nM.

Consider `Cc1cccc(-c2n[nH]cc2-c2ccc3nccc(CNCCN4CCN(C(C)C)CC4)c3n2)n1` [Compound 820, 2-(4-isopropylpiperazin-1-yl)-N-[[6-[3-(6-methyl-2-pyridyl)-1H-pyrazol-4-yl]-1,5-naphthyridin-4-yl]methyl]ethanamine], for which the IC50 in assay [1] was 25.1 to 158 nM. In assay [2], the Ki is 0.0398 to 0.316 nM.

For the molecule `Cc1cccc(-c2[nH]cnc2-c2ccc3ncc(N4CCC5(CC4)CNC5)cc3c2)n1` [Compound 206, 3-(2,7-diazaspiro [3.5]nonan-7-yl)-6-[5-(6-methyl-2-pyridyl)-1H-imidazol-4-yl]quinoline], in assay [1], the IC50 is 25.1 to 158 nM. In addition, the Ki in assay [2] is 0.0398 to 0.316 nM.

Take `Cc1cccc(-c2[nH]cnc2-c2ccc3ncc(-c4cnc5c(c4)CCNC5)cc3c2)n1` [Compound 721, 3-[6-[5-(6-methyl-2-pyridyl)-1H-imidazol-4-yl]-3-quinolyl]-5,6,7,8-tetrahydro-1,7-naphthyridine]: the IC50 in assay [1] was 25.1 to 158 nM. Also, the Ki in assay [2] is 0.0398 to 0.316 nM.

`Cc1cccc(-c2[nH]cnc2-c2ccc3ncc(C(=O)OCCCN4CCC5(CC4)CNC5)cc3c2)n1` [Compound 904, 3-(2,7-diazaspiro[3.5]nonan-7-yl)propyl 6-(5-(6-methylpyridin-2-yl)-1H-imidazol-4-yl)quinoline-3-carboxylate]: the IC50 in assay [1] was 200 to 1260 nM. Besides, the Ki in assay [2] is 0.0398 to 0.316 nM.

Regarding `COC(=O)c1ccnc2ccc(-c3cn[nH]c3-c3cccc(C)n3)cc12` [Compound 1061, methyl 6-[5-(6-methyl-2-pyridyl)-1H-pyrazol-4-yl]quinoline-4-carboxylate], the IC50 in assay [1] is 25.1 to 158 nM. The Ki in assay [2] is 0.0398 to 0.316 nM.

For `Cc1cccc(-c2n[nH]cc2-c2ccc3ncc(-c4cnc(O)nc4)cc3n2)n1` [Compound 69, 5-[6-[3-(6-methyl-2-pyridyl)-1H-pyrazol-4-yl]-1,5-naphthyridin-3-yl]pyrimidin-2-ol], in assay [1], the IC50 was 1580 to 10000 nM. Moreover, in assay [2], the Ki was 0.0398 to 0.316 nM.

Take `Cc1cccc(-c2n[nH]cc2-c2ccc3ncc(N4CC(CN)C4)cc3n2)n1` [Compound 279, [1-[6-[3-(6-methyl-2-pyridyl)-1H-pyrazol-4-yl]-1,5-naphthyridin-3-yl]azetidin-3-yl]methanamine]: in assay [1], the IC50 is 25.1 to 158 nM. Besides, the Ki in assay [2] was 0.0398 to 0.316 nM.

Take `Cc1cccc(-c2nc3ccccn3c2-c2ccc3ncc(-c4cc5n(n4)CCNC5)cc3n2)n1` [Compound 693, 2-[2-(6-methyl-2-pyridyl)imidazo[1,2-a]pyridin-3-yl]-7-(4,5,6,7-tetrahydropyrazolo[1,5-a]pyrazin-2-yl)-1,5-naphthyridine]: the IC50 in assay [1] was less than 20 nM. In addition, the Ki in assay [2] was less than 0.0316 nM.

Consider `Cc1cccc(-c2[nH]cnc2-c2ccc3ncc(-c4csc(C(=O)OCCN5CCNCC5)c4)cc3c2)n1` [Compound 1242, 2-piperazin-1-ylethyl 4-[6-[5-(6-methyl-2-pyridyl)-1H-imidazol-4-yl]-3-quinolyl]thiophene-2-carboxylate], for which the IC50 in assay [1] is 25.1 to 158 nM. The Ki in assay [2] is less than 0.0316 nM.

For the molecule `COC(=O)c1coc(-c2cnc3ccc(-c4c[nH]nc4-c4cccc(C)n4)nc3c2)n1` [Compound 582, methyl 2-[6-[3-(6-methyl-2-pyridyl)-1H-pyrazol-4-yl]-1,5-naphthyridin-3-yl]oxazole-4-carboxylate], the IC50 in assay [1] is 25.1 to 158 nM. The Ki in assay [2] is less than 0.0316 nM.
